Reference: publication PMC8550792, “Evolution of kinase polypharmacology across HSP90 drug discovery” (Cell Chemical Biology, 2021)
“And” between values parts separate entries of the source, which are not always exact repeats. Identical values can stand only once. Like-named read-outs stand apart in the source and are kept apart here.

Columns and labels:
Assay in all cases: biochemical
Format in all cases: biochemical
382 unique human kinases [1] = molecular target: T1, 382 unique human kinases (Homo sapiens, UniProt Q02763, Y1108F); settings: kinase TIE2 (Y1108F), compound 10 uM
T1 construct: purchased Reaction Biology (HotSpot contract assay)

382 unique human kinases [2] = molecular target: T2, 382 unique human kinases (Homo sapiens, UniProt Q9UKE5); settings: TNIK, 10 uM
T2 construct: purchased Reaction Biology (HotSpot contract assay)
T2 sequence (Q9UKE5 whole entry): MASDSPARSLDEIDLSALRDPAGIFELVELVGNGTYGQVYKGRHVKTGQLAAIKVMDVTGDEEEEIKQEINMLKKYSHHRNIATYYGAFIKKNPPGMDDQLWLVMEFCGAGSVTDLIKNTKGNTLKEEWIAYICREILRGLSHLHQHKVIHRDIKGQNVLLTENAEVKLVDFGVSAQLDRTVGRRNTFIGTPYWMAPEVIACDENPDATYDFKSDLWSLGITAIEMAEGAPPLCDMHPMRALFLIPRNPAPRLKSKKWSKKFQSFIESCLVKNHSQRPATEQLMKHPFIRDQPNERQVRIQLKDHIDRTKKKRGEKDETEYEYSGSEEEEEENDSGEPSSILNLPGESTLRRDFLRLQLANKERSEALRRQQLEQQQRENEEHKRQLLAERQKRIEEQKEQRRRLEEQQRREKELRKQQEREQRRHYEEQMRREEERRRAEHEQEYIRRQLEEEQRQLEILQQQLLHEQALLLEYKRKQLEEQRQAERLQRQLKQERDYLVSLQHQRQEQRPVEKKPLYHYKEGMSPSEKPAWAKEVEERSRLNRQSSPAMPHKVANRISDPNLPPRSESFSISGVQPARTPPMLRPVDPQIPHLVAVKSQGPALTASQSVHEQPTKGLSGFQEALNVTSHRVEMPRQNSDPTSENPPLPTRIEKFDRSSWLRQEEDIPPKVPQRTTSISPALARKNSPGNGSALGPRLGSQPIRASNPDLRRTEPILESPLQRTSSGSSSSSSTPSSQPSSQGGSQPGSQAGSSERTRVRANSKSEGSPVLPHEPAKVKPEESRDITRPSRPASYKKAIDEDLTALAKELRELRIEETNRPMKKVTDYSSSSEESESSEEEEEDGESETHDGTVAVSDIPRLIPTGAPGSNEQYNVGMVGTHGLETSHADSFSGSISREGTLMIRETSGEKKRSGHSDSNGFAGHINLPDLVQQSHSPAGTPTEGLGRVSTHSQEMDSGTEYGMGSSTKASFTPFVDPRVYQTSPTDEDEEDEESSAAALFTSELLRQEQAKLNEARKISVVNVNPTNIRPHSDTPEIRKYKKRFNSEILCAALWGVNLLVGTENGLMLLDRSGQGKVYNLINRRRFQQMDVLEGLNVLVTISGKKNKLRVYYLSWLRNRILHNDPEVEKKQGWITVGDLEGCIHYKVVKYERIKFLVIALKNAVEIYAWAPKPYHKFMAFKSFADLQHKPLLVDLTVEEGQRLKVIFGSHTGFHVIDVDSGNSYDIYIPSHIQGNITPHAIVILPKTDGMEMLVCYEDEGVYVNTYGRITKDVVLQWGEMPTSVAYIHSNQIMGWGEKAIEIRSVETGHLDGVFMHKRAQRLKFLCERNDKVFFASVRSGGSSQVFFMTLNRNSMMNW

382 unique human kinases [3] = molecular target: T3, 382 unique human kinases (Homo sapiens, UniProt P50750); settings: for remaining activity at 10 µM: read-out: % Enzyme Activity (relative to DMSO controls)
T3 construct: purchased Reaction Biology (HotSpot contract assay)
T3 sequence (P50750 whole entry): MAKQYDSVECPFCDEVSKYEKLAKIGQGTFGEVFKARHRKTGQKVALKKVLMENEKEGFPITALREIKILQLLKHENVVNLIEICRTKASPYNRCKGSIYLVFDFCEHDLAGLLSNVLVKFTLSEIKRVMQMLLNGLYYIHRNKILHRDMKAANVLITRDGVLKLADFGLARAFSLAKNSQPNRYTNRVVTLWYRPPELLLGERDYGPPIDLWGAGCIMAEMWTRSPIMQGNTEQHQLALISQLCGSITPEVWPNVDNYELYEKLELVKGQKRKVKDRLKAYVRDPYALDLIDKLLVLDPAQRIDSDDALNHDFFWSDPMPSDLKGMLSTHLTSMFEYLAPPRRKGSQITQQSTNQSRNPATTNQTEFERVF

382 unique human kinases [4] = molecular target: T4, 382 unique human kinases (Homo sapiens, UniProt P10721, D820E); settings: c-Kit (D820E), 10 uM
T4 construct: purchased Reaction Biology (HotSpot contract assay)
T4 sequence (P10721 26-976 D820E): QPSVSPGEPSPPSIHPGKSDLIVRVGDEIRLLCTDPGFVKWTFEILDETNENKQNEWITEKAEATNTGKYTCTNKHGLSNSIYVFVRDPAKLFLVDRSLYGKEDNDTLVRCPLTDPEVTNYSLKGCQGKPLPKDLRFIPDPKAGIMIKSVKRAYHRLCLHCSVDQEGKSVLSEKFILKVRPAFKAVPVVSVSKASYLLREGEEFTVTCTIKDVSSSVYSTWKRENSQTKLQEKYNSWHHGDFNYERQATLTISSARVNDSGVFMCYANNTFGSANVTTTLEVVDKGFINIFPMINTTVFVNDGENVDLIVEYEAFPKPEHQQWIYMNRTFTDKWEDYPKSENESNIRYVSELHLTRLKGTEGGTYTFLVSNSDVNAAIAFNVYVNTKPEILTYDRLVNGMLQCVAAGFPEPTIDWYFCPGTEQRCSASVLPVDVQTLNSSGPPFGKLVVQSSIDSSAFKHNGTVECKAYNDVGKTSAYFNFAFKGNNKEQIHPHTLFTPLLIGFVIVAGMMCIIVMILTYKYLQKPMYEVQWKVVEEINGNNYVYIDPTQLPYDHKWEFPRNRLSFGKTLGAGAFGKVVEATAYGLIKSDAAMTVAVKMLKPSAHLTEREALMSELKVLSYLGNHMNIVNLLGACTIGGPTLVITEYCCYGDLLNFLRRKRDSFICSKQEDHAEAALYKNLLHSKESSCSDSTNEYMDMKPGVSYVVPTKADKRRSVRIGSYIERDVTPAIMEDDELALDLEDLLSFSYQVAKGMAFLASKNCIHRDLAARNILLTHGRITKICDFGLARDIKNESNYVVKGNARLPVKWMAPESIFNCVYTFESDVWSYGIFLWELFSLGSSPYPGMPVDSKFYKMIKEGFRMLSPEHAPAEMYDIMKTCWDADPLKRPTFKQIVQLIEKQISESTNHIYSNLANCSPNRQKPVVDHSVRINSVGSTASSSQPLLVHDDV

382 unique human kinases [5] = system: 382 unique human kinases
382 unique human kinases [6] = molecular target: T5, 382 unique human kinases (Homo sapiens, UniProt Q00534); settings: kinase CDK6/cyclin D1, compound 10 uM
T5 construct: purchased Reaction Biology (HotSpot contract assay)
T5 sequence (Q00534 whole entry): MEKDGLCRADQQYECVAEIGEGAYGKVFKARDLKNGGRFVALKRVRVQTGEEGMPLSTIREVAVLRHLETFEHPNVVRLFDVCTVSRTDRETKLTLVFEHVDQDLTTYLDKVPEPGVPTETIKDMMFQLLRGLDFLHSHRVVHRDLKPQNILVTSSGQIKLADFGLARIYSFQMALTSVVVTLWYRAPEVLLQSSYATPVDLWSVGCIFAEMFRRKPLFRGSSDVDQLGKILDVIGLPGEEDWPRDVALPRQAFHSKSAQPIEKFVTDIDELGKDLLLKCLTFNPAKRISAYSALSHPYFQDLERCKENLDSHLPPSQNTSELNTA

382 unique human kinases [7] = molecular target: T6, 382 unique human kinases (Homo sapiens, UniProt Q9H422); settings: HIPK3, compound at 10 uM, duplicate values
T6 construct: purchased Reaction Biology (HotSpot contract assay)
T6 sequence (Q9H422 whole entry): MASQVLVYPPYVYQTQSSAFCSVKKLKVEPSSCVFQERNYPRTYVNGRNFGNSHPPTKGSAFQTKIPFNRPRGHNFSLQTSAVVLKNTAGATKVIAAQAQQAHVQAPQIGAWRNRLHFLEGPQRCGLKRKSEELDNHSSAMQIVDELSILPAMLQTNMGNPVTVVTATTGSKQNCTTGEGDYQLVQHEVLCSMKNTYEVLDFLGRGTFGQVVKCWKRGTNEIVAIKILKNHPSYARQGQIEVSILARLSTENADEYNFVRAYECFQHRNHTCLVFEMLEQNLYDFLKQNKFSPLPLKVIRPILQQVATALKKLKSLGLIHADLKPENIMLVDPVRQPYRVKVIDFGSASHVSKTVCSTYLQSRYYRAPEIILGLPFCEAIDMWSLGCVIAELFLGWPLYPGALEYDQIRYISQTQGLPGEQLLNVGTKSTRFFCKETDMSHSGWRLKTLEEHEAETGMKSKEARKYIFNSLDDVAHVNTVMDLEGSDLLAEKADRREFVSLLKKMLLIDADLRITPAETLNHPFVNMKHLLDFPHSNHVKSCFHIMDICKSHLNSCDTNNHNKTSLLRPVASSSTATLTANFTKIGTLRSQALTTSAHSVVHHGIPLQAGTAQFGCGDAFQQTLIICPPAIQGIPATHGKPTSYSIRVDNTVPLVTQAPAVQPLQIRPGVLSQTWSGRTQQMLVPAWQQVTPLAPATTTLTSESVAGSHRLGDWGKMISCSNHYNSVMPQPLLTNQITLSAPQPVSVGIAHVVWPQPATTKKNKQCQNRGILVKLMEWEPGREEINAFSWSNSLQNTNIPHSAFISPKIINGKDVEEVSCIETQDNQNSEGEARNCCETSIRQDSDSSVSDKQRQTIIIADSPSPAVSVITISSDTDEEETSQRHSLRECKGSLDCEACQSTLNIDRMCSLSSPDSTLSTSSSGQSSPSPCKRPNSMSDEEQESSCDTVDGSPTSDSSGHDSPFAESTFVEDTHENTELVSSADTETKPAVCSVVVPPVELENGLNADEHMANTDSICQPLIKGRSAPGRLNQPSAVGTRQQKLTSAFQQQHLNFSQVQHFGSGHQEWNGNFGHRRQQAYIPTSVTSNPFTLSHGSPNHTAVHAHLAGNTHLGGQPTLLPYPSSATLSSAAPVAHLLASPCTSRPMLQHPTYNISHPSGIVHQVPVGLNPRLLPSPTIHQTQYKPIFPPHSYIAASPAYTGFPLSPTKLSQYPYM

382 unique human kinases [8] = molecular target: T7, 382 unique human kinases (Homo sapiens, UniProt P22607, K650M); settings: FGFR3 (K650M), 10 uM
T7 construct: purchased Reaction Biology (HotSpot contract assay)

382 unique human kinases [9] = molecular target: T8, 382 unique human kinases (Homo sapiens, UniProt P24941); settings: for remaining activity at 10 µM: read-out: % Enzyme Activity (relative to DMSO controls)
T8 construct: purchased Reaction Biology (HotSpot contract assay)

382 unique human kinases [10] = molecular target: T9, 382 unique human kinases (Homo sapiens, UniProt P11802); settings: CDK4/cyclin D1, 10 uM
T9 construct: purchased Reaction Biology (HotSpot contract assay)
T9 sequence (P11802 whole entry): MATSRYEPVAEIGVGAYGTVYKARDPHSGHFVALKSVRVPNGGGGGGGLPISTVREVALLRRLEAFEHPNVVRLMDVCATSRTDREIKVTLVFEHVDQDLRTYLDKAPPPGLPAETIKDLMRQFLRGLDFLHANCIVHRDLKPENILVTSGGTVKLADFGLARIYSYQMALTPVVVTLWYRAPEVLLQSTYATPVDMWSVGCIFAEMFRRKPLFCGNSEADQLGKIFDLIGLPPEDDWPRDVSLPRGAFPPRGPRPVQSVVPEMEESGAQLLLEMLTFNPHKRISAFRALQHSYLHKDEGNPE

382 unique human kinases [11] = molecular target: T10, 382 unique human kinases (Homo sapiens, UniProt P21802, K659N); settings: FGFR2 (K659N), 10 uM
T10 construct: purchased Reaction Biology (HotSpot contract assay)

382 unique human kinases [12] = molecular target: T11, 382 unique human kinases (Homo sapiens, UniProt Q04771, R206H); settings: ALK2 (R206H), compound at 10 uM, duplicate values
T11 construct: purchased Reaction Biology (HotSpot contract assay)
T11 sequence (Q04771 21-509 R206H): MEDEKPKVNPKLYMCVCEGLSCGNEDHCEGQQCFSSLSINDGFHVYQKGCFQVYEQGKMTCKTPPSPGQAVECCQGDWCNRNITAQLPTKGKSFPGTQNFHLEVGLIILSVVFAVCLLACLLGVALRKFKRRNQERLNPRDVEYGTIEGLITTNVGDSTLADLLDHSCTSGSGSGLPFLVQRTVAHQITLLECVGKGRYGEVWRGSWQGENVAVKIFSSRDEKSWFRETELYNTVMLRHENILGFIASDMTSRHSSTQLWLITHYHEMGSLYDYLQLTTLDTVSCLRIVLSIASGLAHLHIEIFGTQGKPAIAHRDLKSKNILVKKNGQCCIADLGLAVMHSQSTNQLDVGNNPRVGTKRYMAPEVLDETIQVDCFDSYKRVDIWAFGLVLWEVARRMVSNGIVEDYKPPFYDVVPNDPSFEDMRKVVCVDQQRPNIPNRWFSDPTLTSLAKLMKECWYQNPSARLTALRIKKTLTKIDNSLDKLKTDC

[13] = read-out: % Enzyme Activity (relative to DMSO controls)
[14] = kinase CDK9/cyclin K, compound 10 uM
[15] = kinase CDK2/cyclin O, compound 10 uM

## CCNC(=O)c1noc(-c2cc(C(C)C)c(O)cc2O)c1-c1ccc(CN2CCOCC2)cc1 [Luminespib (AUY-922)]
382 unique human kinases [1]
  % Enzyme Activity (relative to DMSO controls): 108.40%
382 unique human kinases [1]; [13]
  remaining activity at 10 µM: 110%
382 unique human kinases [2]
  % Enzyme Activity (relative to DMSO controls): 95.71%
382 unique human kinases [2]; [13]
  remaining activity at 10 µM: 96.6%
382 unique human kinases [3]; CDK9/cyclin T2, 10 uM
  % Enzyme Activity (relative to DMSO controls): 89.68%
  remaining activity at 10 µM: 89.7%
382 unique human kinases [3]; [14]
  % Enzyme Activity (relative to DMSO controls): 104.02%
  remaining activity at 10 µM: 104%
382 unique human kinases [4]
  % Enzyme Activity (relative to DMSO controls): 88.12%
382 unique human kinases [4]; [13]
  remaining activity at 10 µM: 88.4%
382 unique human kinases [5]; ALK (F1174L)-EML4, 10 uM
  % Enzyme Activity (relative to DMSO controls): 85.87% and 84.56%
382 unique human kinases [5]; ALK (F1174L)-NPM1, 10 uM
  % Enzyme Activity (relative to DMSO controls): 102.87% and 100.42%
382 unique human kinases [5]; ALK-NPM1, 10 uM
  % Enzyme Activity (relative to DMSO controls): 100.77% and 99.39%
382 unique human kinases [5]; ALK-TFG, 10 uM
  % Enzyme Activity (relative to DMSO controls): 100.17% and 98.13%
382 unique human kinases [5]; BRAF (R506_K507insVLR), compound at 10 uM, duplicate values
  % Enzyme Activity (relative to DMSO controls): 111.39% and 111.37%
382 unique human kinases [5]; BRAF (d485-489/P490Y), compound at 10 uM, duplicate values
  % Enzyme Activity (relative to DMSO controls): 105.00% and 104.80%
382 unique human kinases [5]; BRAF-KIAA1549 (Kex15Bex9), compound at 10 uM, duplicate values
  % Enzyme Activity (relative to DMSO controls): 106.11% and 102.92%
382 unique human kinases [5]; BRAF-KIAA1549 (Kex16Bex9), compound at 10 uM, duplicate values
  % Enzyme Activity (relative to DMSO controls): 104.70% and 104.59%
382 unique human kinases [5]; BRAF-SRGAP3 (Sex12Bex9), compound at 10 uM, duplicate values
  % Enzyme Activity (relative to DMSO controls): 107.79% and 106.99%
382 unique human kinases [5]; PDGFRb-TPM3, 10 uM
  % Enzyme Activity (relative to DMSO controls): 63.63% and 61.80%
382 unique human kinases [5]; PKG1b, 10 uM
  % Enzyme Activity (relative to DMSO controls): 60.28% and 59.59%
382 unique human kinases [5]; RET-CCDC6 (PTC1), 10 uM
  % Enzyme Activity (relative to DMSO controls): 105.26% and 102.15%
382 unique human kinases [5]; RET-NCOA4 (PTC3), 10 uM
  % Enzyme Activity (relative to DMSO controls): 95.03% and 94.64%
382 unique human kinases [5]; RET-PRKAR1A (PTC2), 10 uM
  % Enzyme Activity (relative to DMSO controls): 95.60% and 94.13%
382 unique human kinases [5]; ROS1-TPM3, 10 uM
  % Enzyme Activity (relative to DMSO controls): 97.28% and 96.49%
382 unique human kinases [5]; kinase EGFR (A763_Y764insFHEA), compound 10 uM
  % Enzyme Activity (relative to DMSO controls): 98.66% and 97.53%
382 unique human kinases [5]; kinase EGFR (D770GY), compound 10 uM
  % Enzyme Activity (relative to DMSO controls): 129.18% and 126.54%
382 unique human kinases [5]; kinase EGFR (D770_N771insNPG), compound 10 uM
  % Enzyme Activity (relative to DMSO controls): 106.12% and 103.12%
382 unique human kinases [5]; kinase EGFR (d746), compound 10 uM
  % Enzyme Activity (relative to DMSO controls): 98.75% and 97.31%
382 unique human kinases [5]; kinase EGFR (d746-750/T790M/C797S), compound 10 uM
  % Enzyme Activity (relative to DMSO controls): 100.68% and 100.47%
382 unique human kinases [5]; kinase EGFR (d747-752/P753S), compound 10 uM
  % Enzyme Activity (relative to DMSO controls): 98.74% and 98.40%
382 unique human kinases [5]; kinase ERBB2 (P780_Y781insGSP), compound 10 uM
  % Enzyme Activity (relative to DMSO controls): 96.69% and 95.30%
382 unique human kinases [5]; kinase KSR1 (L639F), compound 10 uM
  % Enzyme Activity (relative to DMSO controls): 103.34% and 102.74%
382 unique human kinases [5]; kinase PDGFRa-FIP1L1, compound 10 uM
  % Enzyme Activity (relative to DMSO controls): 98.64% and 97.51%
382 unique human kinases [5]; kinase RET-BCR, compound 10 uM
  % Enzyme Activity (relative to DMSO controls): 97.53% and 96.48%
382 unique human kinases [6]
  % Enzyme Activity (relative to DMSO controls): 105.58%
382 unique human kinases [6]; [13]
  remaining activity at 10 µM: 106%
382 unique human kinases [7]
  % Enzyme Activity (relative to DMSO controls): 106.96%
382 unique human kinases [7]; [13]
  remaining activity at 10 µM: 108%
382 unique human kinases [8]
  % Enzyme Activity (relative to DMSO controls): 70.76%
382 unique human kinases [8]; [13]
  remaining activity at 10 µM: 78.7%
382 unique human kinases [9]; CDK2/cyclin A, 10 uM
  % Enzyme Activity (relative to DMSO controls): 97.81%
  remaining activity at 10 µM: 97.9%
382 unique human kinases [9]; [15]
  % Enzyme Activity (relative to DMSO controls): 100.70%
  remaining activity at 10 µM: 101%
382 unique human kinases [10]
  % Enzyme Activity (relative to DMSO controls): 100.66%
382 unique human kinases [10]; [13]
  remaining activity at 10 µM: 103%
382 unique human kinases [11]
  % Enzyme Activity (relative to DMSO controls): 101.12%
382 unique human kinases [11]; [13]
  remaining activity at 10 µM: 102%
382 unique human kinases [12]
  % Enzyme Activity (relative to DMSO controls): 113.96%
382 unique human kinases [12]; [13]
  remaining activity at 10 µM: 114%
